In EP0108147B1, “Use of a protoberberine alkaloid and composition containing same” (MAROKO, Peter R., priority 1982, dated 1983):
Where two headings read alike, the source gives them in different places.

How the values were obtained:
[1] = system: closed-chest anesthetized dogs; details: for change of diastolic pressure: berberine in addition to digitalis; for antiarrhythmic and antiarrhythmogenic result in the ouabain experiment: dog, in vivo
Description: A study was carried out to examine the effects of the simultaneous administration of berberine on digitalis (i.e. ouabain) produced arrhythmias.
The experiments were conducted in closed-chest anesthetized dogs which were randomized to three groups. All received ouabain 0.03 mg/Kg as a bolus intravenously and thereafter a continuous infusion with a constant rate of 0.0006 mg/Kg/min until death. […] The second group received simultaneously berberine 1 mg/Kg intravenously as a bolus and then 0.2 mg/Kg/min as a continous infusion. The third group received berberine only after the appearance of VEA in a frequency of 50% of more of all systoles.
Moreover, the effects of intravenous bolus injection of berberine (0.4 to 1 mg/Kg) was studied (in comparison to dextrose 5% injection).

[2] = system: anesthetized closed chest dogs; test: Association of ouabain and berberine on contractility (LV dP/dt), constant systolic pressure; type: in vivo; details: for increase of LV dP/dt, of the initial LV dP/dt: berberine 0.7 mg/Kg/min after ouabain; for increases in dP/dt: only berberine 0.7 mg/Kg/min without digitalis
Description: In anesthetized closed chest dogs the systolic arterial pressure was maintained constant with a reservoir full of heparinized blood (as in protocol "M" and "Z" described above) and a "pigtail" and Millar catheter were introduced into the left ventricular cavity (as in protocol "Z" and "HV", described above). All data was recorded on 8 channel polygraph (Gould Instruments) with a paper speed of 200 mm/s when necessary and at 2 mm/s constantly.

Mongrel dogs = test: Protocol HV: acute left ventricular failure by coronary microsphere embolization, closed chest; type: in vivo; details: for overall result in the model of acute left ventricular failure / preload reduction: dog, in vivo
Description: - Experiments were carried out in 21 mongrel dogs of either sex with body weight between 19 and 39 kg. Anesthesia was induced with sodium pentobarbital, 25 mg/kg of body weight intravenously, and small supplementary doses were given as necessary to maintain a constant level of anesthesia. The dogs were placed in the left lateral position and ventilation was maintained through a cuffed endotracheal tube with a volume-controlled respirator (Harvard Apparatus Co., Millis, Massachusetts). Polyethylene cannuleae were placed into the jugular and femoral veins for intravenous infusions and drug adminstration. Electrocardiograms (lead aVF) were monitored continuously throughout the experiments.
A polyethylene cannula was introduced into the aorta through the left carotid artery to record arterial pressure. (Stantham P23 ID transducer, Stantham Instruments, Inc. Oxnard, California). A Millar microtip transducer catheter (Millar Instruments, Inc., Houston, Texas) was introduced into the left ventricular cavity through the femoral artery to measure left ventricular pressures. For adjustment of zero level, left ventricular pressure was also measured through the fluid-filled lumen in the Millar catheter (Statham P23 ID transducer). The maximal rate of rise of left ventricular pressure, LV dP/dt, was recorded by means of a differentiator. All these parameters were recorded continuously on a polygraph (Gould 2800, Gould Instruments, Cleveland, Ohio). Cardiac output was determined by the thermodilution technique, using a thermistor catheter in the pulmonary artery and calculated by a cardiac output computer (Elecath, Electro- catheter Corp., Rahway, New Jersey). The coefficient of variation for duplicate CO measurements was 5%. In addition to the parameters directly obtained, total peripheral vascular resistance was calculated from the ratio of […] and cardiac output. Stroke volume was calculated by dividing cardiac output by heart rate. Heparin (Invendex) (5000 IU) was administered to avoid clotting of the catheters.
To induce acute left vetricular failure, initially the left main coronary artery was catheterized with a Judkin coronary artery catheter (7F, ISCI Cardiology and Radiology Products, Billerica, Massachusetts) under fluoroscopic control. It was introduced through a femoral artery, and polystyrene microspheres (3M Company, St. Paul, Minnesota) with a diameter of 52. 5 ± 4.0 µm (mean±SD) were injected into the coronary artery. The microspheres were used in a concentration of 1 mg (i.e., 12,000) per ml saline. The first dose of microsphere solution was 0.5 mi/kg body weight, and all subsequent doses were 0.25 ml/kg body weight, administered every 5 minutes. Administration of microspheres was discontinued when LV/dP/dt had been reduced by 30% or more when measured 4 minutes after the last dose. All dogs received prophylactic antiarrhythmic treatment with intravenous lidocaine, 1.5 mg/kg body weight as a bolus 20 min after the end of embolization, followed by a continuous infusion of […].
Forty-five minutes were allowed to elapse to verify the stability of the preparation. If Lv dP/dt or left ventricular end diastolic pressure had changed by 20% or more between 30 and 45 minutes after embolization, the dogs were excluded from this study and not randomized. Forty-five minutes after the end of embolization, the dogs were assigned randomly to three groups: a) Berberine-treated group, 0.2 mg/kg/ min, dissolved in 60 ml of a solution of 5% dextrose in water administered in a constant infusion during 30 minutes; b) ouabain-treated group, 0.03 mg/kg was administered in 60 ml of a 5% solution of dextrose in water during 30 minutes; and c) Control group, administration of 60 ml of a 5% solution of dextrose in water during 30 min. […]

[3] = berberine started after the appearance of 50% of VEA

`COc1ccc2cc3[n+](cc2c1OC)CCc1cc2c(cc1-3)OCO2` [berberine] was tested, and the “occurrence of any arrhythmias (VEA more than 25%, VT or death)” value ([1]; after 60 minutes, all sixteen controls had) was “three had arrhythmias and six did not”, the “occurrence of any arrhythmias (VEA more than 25%, VT or death)” value ([1]; after 90 minutes, all controls had) was “four had arrhythmias and five did not” and the “occurrence of any arrhythmias (VEA more than 25%, VT or death)” value ([1]; at 30 minutes, control twelve had, four did not) was “one had arrhythmia and eight did not”. The “occurrence of any arrhythmias (VEA more than 25%, VT or death)” value ([1]; at 45 minutes, control fourteen had, two did not) was “three had arrhythmias and six had not”, the “change of diastolic pressure” value ([1]; 10 minutes) was -9±5% and the “change of diastolic pressure” value ([1]; 20 minutes) was -13±9%. The “change of diastolic pressure” value ([1]; 30 minutes) was -13±10%, the “change of diastolic pressure” value ([1]; 60 minutes) was -20±11% and the “amount of ouabain that provoked VT” value [1, 3] was 0.080 mg/kg. For the same molecule, the “delay of the appearance of sustained VT” value [1, 3] was “more than 250%”, the “time of appearance of sustained VT” value ([1]; berberine started after the appearance of 50% of VEA, control 30.1±6.5) was 84.5 ± 13.8 min and the “dose of ouabain to provoke VT” value ([1]; berberine treated dogs (simultaneous)) was 0.088 mg/kg. The “injections effective in reverting VT into sinus rhythm within five minutes” value ([1]; intravenous bolus 0.4 to 1 mg/Kg, placebo none of twelve) was 30 out of 41, the “time of appearance of 25% of VEA” value ([1]; ouabain infusion + simultaneous berberine 1 mg/Kg bolus then 0.2 mg/Kg/min, controls 22±4.7) was 66.5 ± 14.6 min and the “prolongation of the time of appearance of VEA and VT” value ([1]; simultaneous berberine) was “around 300%”. The “time of appearance of 50% of VEA” value ([1]; simultaneous berberine, controls 23.9±4.7) was 66.7 ± 15.3 min, the “time of appearance of VT” value ([1]; simultaneous berberine, controls 30.1±6.5) was 96.1 ± 15.1 min and the ventricular fibrillation ([1]; two berberine dogs) was “ventricular fibrillation reverted without any other therapy”. The “increase of LV dP/dt, of the initial LV dP/dt” value (“increase of LV dP/dt” below) ([2]; 5 minutes) was 87±10%, the “increase of LV dP/dt” value ([2]; 10 minutes) was 82±13% and the “increase of LV dP/dt” value ([2]; 15 minutes) was 87±13%. The “increase of LV dP/dt” value ([2]; 20 minutes) was 95±16%, the “increase of LV dP/dt” value ([2]; 25 minutes) was 96±16% and the “increase of LV dP/dt” value ([2]; 30 minutes) was 94±14%. The “combined effect with ouabain on contractility” value ([2]; dog, in vivo) was “more than additive but synergistic”, the “increases in dP/dt” value ([2]; 5 minutes) was 30±4% and the “increases in dP/dt” value ([2]; 10 minutes) was 36±3%. The “increases in dP/dt” value ([2]; 15 minutes) was 39±3%, the “increases in dP/dt” value ([2]; 20 minutes) was 42±5% and the “increases in dP/dt” value ([2]; 25 minutes) was 39±5%. The “increases in dP/dt” value ([2]; 30 minutes) was 40±7%, the “time to increase of LVdP/dt and reduction of left ventricular end diastolic pressure” value (Mongrel dogs; 0.2 mg/kg/min infusion) was at most 2.5 min and the “Diastolic and mean arterial pressure” value (Mongrel dogs; 0.2 mg/kg/min, 30 min) was “significantly although only slightly reduced”. The Systolic arterial pressure (Mongrel dogs; 0.2 mg/kg/min, 30 min) was “not significantly changed”, the “decrease of total peripheral vascular resistance” value (Mongrel dogs; 0.2 mg/kg/min, 30 min) was 19 ± 2% and the “fall of heart rate” value (Mongrel dogs; 0.2 mg/kg/min, 30 min) was 8 beats/min. For the same molecule, the “increase of LVdP/dt” value (Mongrel dogs; 0.2 mg/kg/min, end of the 30-minute infusion) was 28 ± 8%, the cardiac output (Mongrel dogs; after infusion, from 1.76 ± 0.15) was 1.93 ± 0.16 L/min and the Stroke volume (Mongrel dogs; after infusion, from 14.6 ± 1.9) was 17.3 ± 2.7 mL. The pulse pressure (Mongrel dogs; after infusion, from 28 ± 2) was 33 ± 4 mmHg, the “Total peripheral vascular resistance” value (Mongrel dogs; after infusion, from 4915 ± 559) was 4004 ± 496 10^-5N·S·cm^-5 and the “decrease of left venticular end diastolic pressure” value (Mongrel dogs; end of the 30-minute infusion) was 38 ± 4%. For the same molecule, the “Left venticular end diastolic pressure” value (Mongrel dogs; end of the 30-minute infusion, from 13.3 ± 0.8) was 8.1 ± 0.5 mmHg and the LVdP/dt (Mongrel dogs; end of the 30-minute infusion, from 1572 ±80) was 2010 ± 95 mmHg/s.

In the case of `COc1ccc2cc3[n+](cc2c1O)CCc1cc2c(cc1-3)OCO2` [berberrubine], the “antiarrhythmic and antiarrhythmogenic result in the ouabain experiment” value [1] is reported as “satisfactory results”, the “result in the association with ouabain” value ([2]; dog, in vivo) is reported as “perform in the same manner” and the “overall result in the model of acute left ventricular failure” value (Mongrel dogs) is reported as “perform in an equivalent manner”. The preload reduction (Mongrel dogs) was “comparable preload reduction”.

`COc1cc2c(cc1O)C[C@H]1c3cc(O)c(OC)cc3CCN1C2` [coreximine] was tested, and the “antiarrhythmic and antiarrhythmogenic result in the ouabain experiment” value [1] was “satisfactory results”, the “result in the association with ouabain” value ([2]; dog, in vivo) was “perform in the same manner” and the “overall result in the model of acute left ventricular failure” value (Mongrel dogs) was “perform in an equivalent manner”. For the same molecule, the preload reduction (Mongrel dogs) was “comparable preload reduction”.
